For data set [1] the following is noted: dry state.
Data set [2] in a line: pH of unit dosage forms reconstituted with Sterile Water for Injection. The conditions noted are these: diluted with Sterile Water for Injection, U.S.P. to 333 mg of cefbuperazone activity per ml. The format is physicochemical.
Data set [3] can be described thus: Intravenous toxicity test (LD50). The conditions noted are these: mouse, in vivo, mice, dosing solution 333 mg of cefbuperazone activity per ml, parentheses = 95% confidence limits. As for the experimental part: Intravenous toxicity tests were conducted in Swiss-Webster mice using the sodium salt of cefbuperazone and the compositions of the present invention. In each case, the dosing solution contained 333 mg of cefbuperazone activity per ml.

The test system of data set [4] is weanling female Sprague-Dawley rats. Put plainly: Rat paw-lick test for pain on injection. The conditions noted are these: pH 5.3; 0.1 ml subplantar, 333 mg activity per ml; mean 0-3 minutes after injection ± Standard Error. The format is in vivo. As for the experimental part:
The test animals were weanling female Sprague-Dawley rats. The test solutions were injected into the subplantar tissue of the right or left hind paw, using a syringe with a 27 gauge, 1/2-inch needle. […] The paw-lick response, an indicator of the pain caused by the injection, was recorded for each rat for three minutes following the injection. A paw-licking episode is defined as a licking response followed by a turning of the head away from the paw or five seconds of uninterrupted licking.

The nature of data set [5]: Stability in the dry state (% loss on storage at elevated temperature). The note with it: 100°C - 1 day, listed as Lyophilized anhydrous sodium cefbuperazone.
The text on data set [6]:
The most preferred pH range of the reconstituted solution is about 4 to about 5, because pain upon injection normally increases with […].
For this reason, it is not possible to give absolute gram amounts of cefbuperazone and lysine, arginine, lysine acetate and/or arginine acetate to produce a specific pH. The amount of each ingredient can readily be determined for individual batches of the two components by titration of the cefbuperazone with the other component.

Data set [7] is described as follows: physchem. The conditions noted are these: dry state, % Loss.
Data set [8] can be described thus: Hygroscopicity. Format: physicochemical. The note with it: in words.

Structures are written as SMILES. Like-named read-outs stand apart in the source and are kept apart here.

As for `CCN1CCN(C(=O)NC(C(=O)NC2(OC)C(=O)N3C(C(=O)O)=C(CSc4nnnn4C)CSC32)C(C)O)C(=O)C1=O` (stereo not shown) [Anhydrous cefbuperazone free acid], the “% Loss” value in data set [1] (72 h) is 7.8%; in data set [1] (168 h) it was 4.1%; in data set [1] (672 h), 3.4%.

In the case of `CCN1CCN(C(=O)NC(C(=O)NC2(OC)C(=O)N3C(C(=O)O)=C(CSc4nnnn4C)CSC32)C(C)O)C(=O)C1=O` (stereo not shown) [sodium cefbuperazone], the “pH of Solution” value in data set [2] was 5.3. Further, the LD50 – broadly, the dose expected to kill half of the subjects tested – in data set [3] is greater than 5000 mg/kg. For the same compound, in data set [4], the “Paw-Lick Response” value is given as 5.20 ± 1.31 (10). In addition, the “% Loss” value in data set [1] (72 h) is 37.2%; in data set [1] (336 h) it was 38.0%; in data set [1] (1344 h) it was 35.0%; in data set [5], “melts/decomposes”.

In the case of `CCN1CCN(C(=O)NC(C(=O)NC2(OC)C(=O)N3C(C(=O)O)=C(CSc4nnnn4C)CSC32)C(C)O)C(=O)C1=O` (stereo not shown) [Cefbuperazone free acid dihydrate], the water solubility entry in data set [6] is listed as “insufficiently water-soluble”. Further, in data set [6] (264.4 mg suspended in 10 ml of water, titrated with aqueous L(+) lysine), the “pH at which solution of the cefbuperazone takes place” value is roughly 3.5. For the same compound, the “% Loss” value in data set [1] (24 h) was “+ 4.5%”; in data set [1] (48 h), “+ 3.3%”; in data set [1] (336 h) it was “+ 4.6%”; in data set [1] (1344 h), “+ 2.2%”. For the same compound, in data set [7], the degraded at 168 h was found to be 3.7%. The compound further gave a degraded at 840 h in data set [7] of 0%. In addition, the degraded at 1008 h in data set [7] was determined as 1.8%.

As to `CCN1CCN(C(=O)NC(C(=O)NC2(OC)C(=O)N3C(C(=O)O)=C(CSc4nnnn4C)CSC32)C(C)O)C(=O)C1=O` (stereo not shown) [Cefbuperazone free acid hemiacetonate], the hygroscopicity entry in data set [8] is “non- hygroscopic”. Further, the “% Loss” value in data set [1] (48 h) and in data set [1] (336 h) was 0% in each case.

These data come from EP0189941A2, “Antibiotic compositions” (Bristol-Myers Squibb Company, priority 1985, dated 1986).
